# Patent US10131652B2, “Pyrimidinyloxy benzene derivatives as herbicides” (E. I. DU PONT DE NEMOURS AND COMPANY, priority 2014, dated 2018)
# Read-outs that look alike come from different tables or passages of the source.
# Legend:
# Format in all cases: in vivo
# [1] = system: large (Lg) crabgrass (Digitaria sanguinalis); test: Test B pre-/postemergence plant response; settings: 1000 g ai/ha, 0 to 100 scale (0 no effect, 100 complete control); for pest or weed control at 1000 g/ha: Digitaria sanguinalis, 240 h, read-out: Plant response rating, Crabgrass, Large
# Procedure, shortened: (§1)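 Evaluation is visual, about 10 days after application, rating injury from 0 (none) to 100 (complete control) relative to untreated controls. Application was a preemergence soil spray on seeded pots or a postemergence spray on one- to two-leaf plants.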
# [2] = system: morningglory (Ipomoea spp.); test: Test B pre-/postemergence plant response; settings: 1000 g ai/ha, 0 to 100 scale (0 no effect, 100 complete control); for pest or weed control at 1000 g/ha: Ipomoea, 240 h, read-out: Plant response rating, Morningglory
# Procedure, shortened: as §1
# [3] = system: velvetleaf (Abutilon theophrasti); test: Test B pre-/postemergence plant response; settings: 1000 g ai/ha, 0 to 100 scale (0 no effect, 100 complete control); for pest or weed control at 1000 g/ha: Abutilon theophrasti, 240 h, read-out: Plant response rating, Velvetleaf
# Procedure, shortened: as §1
# [4] = system: barnyardgrass (Echinochloa crus-galli); test: Test B pre-/postemergence plant response; settings: 1000 g ai/ha, 0 to 100 scale (0 no effect, 100 complete control); for pest or weed control at 1000 g/ha: Echinochloa crus-galli, 240 h, read-out: Plant response rating, Barnyardgrass
# Procedure, shortened: as §1
# [5] = system: giant foxtail (Setaria faberii); test: Test B pre-/postemergence plant response; settings: 1000 g ai/ha, 0 to 100 scale (0 no effect, 100 complete control); for pest or weed control at 1000 g/ha: Setaria faberi, 240 h, read-out: Plant response rating, Foxtail, Giant
# Procedure, shortened: as §1
# [6] = system: corn (Zea mays); test: Test B pre-/postemergence plant response; settings: 1000 g ai/ha, 0 to 100 scale (0 no effect, 100 complete control); for Corn plant response rating (crop injury, 0 = no effect, 100 = complete kill) at 1000 g/ha: Zea mays, 240 h
# Procedure, shortened: as §1
# [7] = system: wheat (Triticum aestivum); test: Test B pre-/postemergence plant response; settings: 1000 g ai/ha, 0 to 100 scale (0 no effect, 100 complete control); for plant injury at 1000 g/ha: Triticum aestivum, 240 h, read-out: Plant response rating, Wheat
# Procedure, shortened: as §1
# [8] = system: pigweed (Amaranthus retroflexus); test: Test B pre-/postemergence plant response; settings: 1000 g ai/ha, 0 to 100 scale (0 no effect, 100 complete control); for pest or weed control at 1000 g/ha: Amaranthus retroflexus, 240 h, read-out: Plant response rating, Pigweed
# Procedure, shortened: as §1
# [9] = system: barnyardgrass (Echinochloa crus-galli); test: Test D flooded paddy test plant response; settings: Flood (flooded paddy test), visual rating on scale 0 to 100 (0 no effect, 100 complete control), 13 to 15 days
# Source text: (§2) Plant species in the flooded paddy test consisted of rice (Oryza sativa), small-flower umbrella sedge (Cyperus difformis), ducksalad (Heteranthera limosa), and bamyardgrass (Echinochloa crus-galli) grown to the 2-leaf stage for testing. At time of treatment, test pots were flooded to 3 cm above the soil surface, treated by application of test compounds directly to the paddy water, and then maintained at that water depth for the duration of the test. Treated plants and controls were maintained in a greenhouse for 13 to 15 days, after which time all species were compared to controls and visually evaluated. Plant response ratings, summarized in Table D, are based on a scale of 0 to 100 where 0 is no effect and 100 is complete control. A dash (-) response means no test result.
# [10] = system: rice (Oryza sativa); test: Test D flooded paddy test plant response; settings: Flood (flooded paddy test), visual rating on scale 0 to 100 (0 no effect, 100 complete control), 13 to 15 days
# Source text: as §2
# [11] = system: small-flower umbrella sedge (Cyperus difformis); test: Test D flooded paddy test plant response; settings: Flood (flooded paddy test), visual rating on scale 0 to 100 (0 no effect, 100 complete control), 13 to 15 days
# Source text: as §2
# [12] = system: ducksalad (Heteranthera limosa); test: Test D flooded paddy test plant response; settings: Flood (flooded paddy test), visual rating on scale 0 to 100 (0 no effect, 100 complete control), 13 to 15 days
# Source text: as §2
# [13] = system: large (Lg) crabgrass (Digitaria sanguinalis); test: Test A pre-/postemergence plant response; settings: 0 to 100 scale, 0 is no effect, 100 is complete control
# Source text: (§3) Seeds of plant species selected from downy bromegrass (Bromus tectorum), cocklebur (common cocklebur, Xanthium strumarium), wild oat (Avena fatua), barnyardgrass (Echinochloa crus-galli), large (Lg) crabgrass (Digitaria sanguinalis), giant foxtail (Setaria faberii), morningglory (Ipomoea spp.), velvetleaf (Abutilon theophrasti), and sorghum (Sorghum vulgare) were planted into a sandy loam soil and treated preemergence by soil drench using test a chemical formulated in a non-phytotoxic solvent mixture which included a surfactant. At the same time these species were also treated postemergence sprayed to runoff using a test chemical formulated in the same manner. Plants ranged in height from 2 to 18 cm and were in the one- to two-leaf stage for the postemergence treatment. Treated plants and untreated controls were maintained in a greenhouse for approximately 11 days, after which time all treated plants were compared to untreated controls and visually evaluated for injury. Plant response ratings, summarized in Table A, are based on a 0 to 100 scale where 0 is no effect and 100 is complete control. A dash (-) response means no test result.
# [14] = system: morningglory (Ipomoea spp.); test: Test A pre-/postemergence plant response; settings: 0 to 100 scale, 0 is no effect, 100 is complete control
# Source text: as §3
# [15] = system: cocklebur (common cocklebur, Xanthium strumarium); test: Test A pre-/postemergence plant response; settings: 0 to 100 scale, 0 is no effect, 100 is complete control
# Source text: as §3
# [16] = system: velvetleaf (Abutilon theophrasti); test: Test A pre-/postemergence plant response; settings: 0 to 100 scale, 0 is no effect, 100 is complete control
# Source text: as §3
# [17] = system: barnyardgrass (Echinochloa crus-galli); test: Test A pre-/postemergence plant response; settings: 0 to 100 scale, 0 is no effect, 100 is complete control
# Source text: as §3
# [18] = system: giant foxtail (Setaria faberii); test: Test A pre-/postemergence plant response; settings: 0 to 100 scale, 0 is no effect, 100 is complete control
# Source text: as §3
# [19] = system: downy bromegrass (Bromus tectorum); test: Test A pre-/postemergence plant response; settings: 0 to 100 scale, 0 is no effect, 100 is complete control
# Source text: as §3
# [20] = system: sorghum (Sorghum vulgare); test: Test A pre-/postemergence plant response; settings: 0 to 100 scale, 0 is no effect, 100 is complete control
# Source text: as §3
# [21] = system: wild oat (Avena fatua); test: Test A pre-/postemergence plant response; settings: 0 to 100 scale, 0 is no effect, 100 is complete control
# Source text: as §3
# [22] = 1000 g ai/ha, Post Sprayed to Runoff
smiles,measurement,setting,value
"Clc1ccc(-c2ccccc2Oc2ncc(Cl)cn2)nc1 [Compound 1, 5-chloro-2-[2-(5-chloro-2-pyridinyl)phenoxy]pyrimidine]",pest or weed control at 1000 g/ha,"[1]; post-emergence, Postemergence",70%
same,pest or weed control at 1000 g/ha,"[1]; pre-emergence, Preemergence",100%
same,pest or weed control at 1000 g/ha,"[2]; post-emergence, Postemergence",60%
same,pest or weed control at 1000 g/ha,"[2]; pre-emergence, Preemergence",20%
same,pest or weed control at 1000 g/ha,"[3]; post-emergence, Postemergence",100%
same,pest or weed control at 1000 g/ha,"[3]; pre-emergence, Preemergence",80%
same,pest or weed control at 1000 g/ha,"[4]; post-emergence, Postemergence",70%
same,pest or weed control at 1000 g/ha,"[4]; pre-emergence, Preemergence",80%
same,pest or weed control at 1000 g/ha,"[5]; post-emergence, Postemergence",80%
same,pest or weed control at 1000 g/ha,"[5]; pre-emergence, Preemergence",100%
same,"Corn plant response rating (crop injury, 0 = no effect, 100 = complete kill) at 1000 g/ha","[6]; post-emergence, Postemergence",10%
same,"Corn plant response rating (crop injury, 0 = no effect, 100 = complete kill) at 1000 g/ha","[6]; pre-emergence, Preemergence",0%
same,plant injury at 1000 g/ha,"[7]; post-emergence, Postemergence",0%
same,plant injury at 1000 g/ha,"[7]; pre-emergence, Preemergence",0%
same,pest or weed control at 1000 g/ha,"[8]; post-emergence, Postemergence",100%
same,pest or weed control at 1000 g/ha,"[8]; pre-emergence, Preemergence",100%
same,"Plant response rating, Barnyardgrass",[9]; 31 g ai/ha,0
same,"Plant response rating, Barnyardgrass",[9]; 62 g ai/ha,0
same,"Plant response rating, Barnyardgrass",[9]; 125 g ai/ha,0
same,"Plant response rating, Barnyardgrass",[9]; 250 g ai/ha,0
same,"Plant response rating, Rice",[10]; 31 g ai/ha,0
same,"Plant response rating, Rice",[10]; 62 g ai/ha,0
same,"Plant response rating, Rice",[10]; 125 g ai/ha,0
same,"Plant response rating, Rice",[10]; 250 g ai/ha,0
same,"Plant response rating, Sedge, Umbrella",[11]; 31 g ai/ha,0
same,"Plant response rating, Sedge, Umbrella",[11]; 62 g ai/ha,0
same,"Plant response rating, Sedge, Umbrella",[11]; 125 g ai/ha,0
same,"Plant response rating, Sedge, Umbrella",[11]; 250 g ai/ha,0
same,"Plant response rating, Ducksalad",[12]; 31 g ai/ha,0
same,"Plant response rating, Ducksalad",[12]; 62 g ai/ha,0
same,"Plant response rating, Ducksalad",[12]; 125 g ai/ha,0
same,"Plant response rating, Ducksalad",[12]; 250 g ai/ha,0
Cc1ccc(Oc2ncc(Cl)cn2)c(-c2cccc(C(F)(F)F)c2)c1 [Compound 39],"Plant response rating, Crabgrass, Large",[13]; [22],50
same,"Plant response rating, Crabgrass, Large","[13]; 2000 g ai/ha, Pre Soil Drench",90
same,"Plant response rating, Morningglory",[14]; [22],30
same,"Plant response rating, Morningglory","[14]; 2000 g ai/ha, Pre Soil Drench",0
same,"Plant response rating, Cocklebur",[15]; [22],40
same,"Plant response rating, Cocklebur","[15]; 2000 g ai/ha, Pre Soil Drench",0
same,"Plant response rating, Velvetleaf",[16]; [22],60
same,"Plant response rating, Velvetleaf","[16]; 2000 g ai/ha, Pre Soil Drench",70
same,"Plant response rating, Barnyardgrass",[17]; [22],50
same,"Plant response rating, Barnyardgrass","[17]; 2000 g ai/ha, Pre Soil Drench",90
same,"Plant response rating, Foxtail, Giant",[18]; [22],30
same,"Plant response rating, Foxtail, Giant","[18]; 2000 g ai/ha, Pre Soil Drench",100
same,"Plant response rating, Bromegrass, Downy",[19]; [22],20
same,"Plant response rating, Bromegrass, Downy","[19]; 2000 g ai/ha, Pre Soil Drench",70
same,"Plant response rating, Sorghum",[20]; [22],30
same,"Plant response rating, Sorghum","[20]; 2000 g ai/ha, Pre Soil Drench",50
same,"Plant response rating, Oat, Wild",[21]; [22],20
same,"Plant response rating, Oat, Wild","[21]; 2000 g ai/ha, Pre Soil Drench",90
FC(F)(F)Oc1cccc(-c2ccccc2Oc2ncc(Cl)cn2)c1 [Compound 40],"Plant response rating, Crabgrass, Large",[1]; Postemergence,50
same,"Plant response rating, Crabgrass, Large",[1]; Preemergence,70
same,"Plant response rating, Morningglory",[2]; Postemergence,100
same,"Plant response rating, Morningglory",[2]; Preemergence,0
same,"Plant response rating, Velvetleaf",[3]; Postemergence,100
same,"Plant response rating, Velvetleaf",[3]; Preemergence,90
same,"Plant response rating, Barnyardgrass",[4]; Postemergence,30
same,"Plant response rating, Barnyardgrass",[4]; Preemergence,50
same,"Plant response rating, Foxtail, Giant",[5]; Postemergence,50
same,"Plant response rating, Foxtail, Giant",[5]; Preemergence,100
same,"Plant response rating, Corn",[6]; Postemergence,20
same,"Plant response rating, Corn",[6]; Preemergence,0
same,"Plant response rating, Wheat",[7]; Postemergence,10
same,"Plant response rating, Wheat",[7]; Preemergence,0
same,"Plant response rating, Pigweed",[8]; Postemergence,100
same,"Plant response rating, Pigweed",[8]; Preemergence,100
same,"Plant response rating, Barnyardgrass",[9]; 31 g ai/ha,0
same,"Plant response rating, Barnyardgrass",[9]; 62 g ai/ha,0
same,"Plant response rating, Barnyardgrass",[9]; 125 g ai/ha,0
same,"Plant response rating, Barnyardgrass",[9]; 250 g ai/ha,0
same,"Plant response rating, Rice",[10]; 31 g ai/ha,0
same,"Plant response rating, Rice",[10]; 62 g ai/ha,0
same,"Plant response rating, Rice",[10]; 125 g ai/ha,0
same,"Plant response rating, Rice",[10]; 250 g ai/ha,0
same,"Plant response rating, Sedge, Umbrella",[11]; 31 g ai/ha,0
same,"Plant response rating, Sedge, Umbrella",[11]; 62 g ai/ha,0
same,"Plant response rating, Sedge, Umbrella",[11]; 125 g ai/ha,30
same,"Plant response rating, Sedge, Umbrella",[11]; 250 g ai/ha,50
same,"Plant response rating, Ducksalad",[12]; 31 g ai/ha,0
same,"Plant response rating, Ducksalad",[12]; 62 g ai/ha,0
same,"Plant response rating, Ducksalad",[12]; 125 g ai/ha,20
same,"Plant response rating, Ducksalad",[12]; 250 g ai/ha,40
